From ChEMBL document CHEMBL2413072, “Synthesis and in vitro anticancer studies of novel C-2 arylidene congeners of lantadenes” (2013)

Assays:
Type in all cases: functional
[1] = system: T47D; assay: Growth inhibition of human T47D cells assessed as cell growth at 10 uM by sulforhodamine B assay; settings: read-out: Activity
[2] = system: Malme-3M; assay: Growth inhibition of human MALME-3M cells assessed as cell growth at 10^-8 M by sulforhodamine B assay; settings: read-out: Activity
[3] = system: NCI-H23; assay: Growth inhibition of human NCI-H23 cells assessed as cell growth at 10^-4 M by sulforhodamine B assay; settings: read-out: Activity
[4] = system: SR; assay: Growth inhibition of human SR cells assessed as cell growth at 10 uM by sulforhodamine B assay; settings: read-out: Activity
[5] = system: T47D; assay: Growth inhibition of human T47D cells assessed as cell growth at 10^-4 M by sulforhodamine B assay; settings: read-out: Activity
[6] = system: T47D; assay: Growth inhibition of human T47D cells assessed as growth inhibition at 10 uM by sulforhodamine B assay; settings: read-out: GI
[7] = system: RXF 393; assay: Growth inhibition of human RXF393 cells assessed as cell growth at 10 uM by sulforhodamine B assay; settings: read-out: Activity
[8] = system: NCI-H322M; assay: Growth inhibition of human NCI-H322M cells assessed as cell growth at 10^-4 M by sulforhodamine B assay; settings: read-out: Activity
[9] = system: SNB-75; assay: Growth inhibition of human SNB75 cells assessed as cell growth at 10^-6 M by sulforhodamine B assay; settings: read-out: Activity
[10] = system: OVCAR-5; assay: Growth inhibition of human OVCAR5 cells assessed as growth inhibition at 10 uM by sulforhodamine B assay; settings: read-out: GI
[11] = system: HCT-15; assay: Growth inhibition of human HCT15 cells assessed as cell growth at 10^-8 M by sulforhodamine B assay; settings: read-out: Activity
[12] = system: CCRF-CEM; assay: Growth inhibition of human CCRF-CEM cells assessed as cell growth at 10^-6 M by sulforhodamine B assay; settings: read-out: Activity
[13] = system: OVCAR-8; assay: Growth inhibition of human OVCAR8 cells assessed as cell growth at 10 uM by sulforhodamine B assay; settings: read-out: Activity
[14] = system: MOLT-4; assay: Growth inhibition of human MOLT4 cells assessed as growth inhibition at 10 uM by sulforhodamine B assay; settings: read-out: GI
[15] = system: COLO 205; assay: Growth inhibition of human COLO205 cells assessed as cell growth at 10^-4 M by sulforhodamine B assay; settings: read-out: Activity
[16] = Growth inhibition of human Hs 578T cells assessed as cell growth at 10^-7 M by sulforhodamine B assay; settings: read-out: Activity
[17] = system: K562; assay: Growth inhibition of human K562 cells assessed as cell growth at 10^-8 M by sulforhodamine B assay; settings: read-out: Activity
[18] = system: PC-3; assay: Growth inhibition of human PC3 cells assessed as cell growth at 10^-6 M by sulforhodamine B assay; settings: read-out: Activity
[19] = system: OVCAR-3; assay: Growth inhibition of human OVCAR3 cells by sulforhodamine B assay
[20] = system: HOP-92; assay: Growth inhibition of human HOP92 cells assessed as growth inhibition at 10 uM by sulforhodamine B assay; settings: read-out: GI
[21] = system: PC-3; assay: Growth inhibition of human PC3 cells assessed as growth inhibition at 10 uM by sulforhodamine B assay; settings: read-out: GI
[22] = system: HOP-62; assay: Growth inhibition of human HOP62 cells assessed as growth inhibition at 10 uM by sulforhodamine B assay; settings: read-out: GI
[23] = system: HOP-92; assay: Growth inhibition of human HOP92 cells by sulforhodamine B assay
[24] = system: LOX IMVI; assay: Growth inhibition of human LOXIMVI cells assessed as growth inhibition at 10 uM by sulforhodamine B assay; settings: read-out: GI
[25] = system: MDA-MB-231; assay: Growth inhibition of human MDA-MB-231 cells assessed as growth inhibition at 10 uM by sulforhodamine B assay; settings: read-out: GI
[26] = system: SW-620; assay: Growth inhibition of human SW620 cells assessed as growth inhibition at 10 uM by sulforhodamine B assay; settings: read-out: GI
[27] = system: 786-0; assay: Growth inhibition of human 786-0 cells assessed as cell growth at 10 uM by sulforhodamine B assay; settings: read-out: Activity
[28] = system: SNB-19; assay: Growth inhibition of human SNB19 cells assessed as cell growth at 10^-4 M by sulforhodamine B assay; settings: read-out: Activity
[29] = system: HCT-15; assay: Growth inhibition of human HCT15 cells assessed as cell growth at 10 uM by sulforhodamine B assay; settings: read-out: Activity
[30] = system: TK-10; assay: Growth inhibition of human TK10 cells assessed as cell growth at 10 uM by sulforhodamine B assay; settings: read-out: Activity
[31] = system: UACC-257; assay: Growth inhibition of human UACC257 cells by sulforhodamine B assay
[32] = system: HT-29; assay: Growth inhibition of human HT-29 cells assessed as growth inhibition at 10 uM by sulforhodamine B assay; settings: read-out: GI
[33] = system: MCF7; assay: Growth inhibition of human MCF7 cells assessed as cell growth at 10^-8 M by sulforhodamine B assay; settings: read-out: Activity
[34] = system: SR; assay: Growth inhibition of human SR cells assessed as growth inhibition at 10 uM by sulforhodamine B assay; settings: read-out: GI
[35] = system: MOLT-4; assay: Growth inhibition of human MOLT4 cells assessed as cell growth at 10 uM by sulforhodamine B assay; settings: read-out: Activity
[36] = system: IGROV-1; assay: Growth inhibition of human IGROV1 cells assessed as cell growth at 10^-7 M by sulforhodamine B assay; settings: read-out: Activity
[37] = system: UACC-62; assay: Growth inhibition of human UACC62 cells assessed as cell growth at 10 uM by sulforhodamine B assay; settings: read-out: Activity
[38] = system: SN12C; assay: Growth inhibition of human SN12C cells assessed as cell growth at 10^-7 M by sulforhodamine B assay; settings: read-out: Activity
[39] = system: HCT-15; assay: Growth inhibition of human HCT15 cells assessed as cell growth at 10^-7 M by sulforhodamine B assay; settings: read-out: Activity
[40] = system: NCI-H522; assay: Growth inhibition of human NCI-H522 cells assessed as cell growth at 10 uM by sulforhodamine B assay; settings: read-out: Activity
[41] = system: IGROV-1; assay: Growth inhibition of human IGROV1 cells assessed as cell growth at 10 uM by sulforhodamine B assay; settings: read-out: Activity
[42] = system: UACC-257; assay: Growth inhibition of human UACC257 cells assessed as cell growth at 10^-7 M by sulforhodamine B assay; settings: read-out: Activity
[43] = system: SK-MEL-28; assay: Growth inhibition of human SK-MEL-28 cells assessed as growth inhibition at 10 uM by sulforhodamine B assay; settings: read-out: GI
[44] = Growth inhibition of human HCC2998 cells assessed as cell growth at 10^-4 M by sulforhodamine B assay; settings: HCC 2998, read-out: Activity
[45] = system: KM12; assay: Growth inhibition of human KM12 cells assessed as cell growth at 10^-7 M by sulforhodamine B assay; settings: read-out: Activity
[46] = system: KM12; assay: Growth inhibition of human KM12 cells assessed as cell growth at 10^-8 M by sulforhodamine B assay; settings: read-out: Activity
[47] = read-out: LC50 (the source's name)
[48] = read-out: pLC50 (the source's name) (converted)

SMILES: CC(C)=CC(=O)O[C@@H]1CC(C)(C)C[C@H]2C3=CC[C@@H]4[C@@]5(C)CCC(=O)C(C)(C)[C@@H]5CC[C@@]4(C)[C@]3(C)CC[C@@]12C(=O)O
- growth at 10 µM [1]: 61.6%
- growth at 0.01 µM [2]: 94%
- growth at 100 µM [3]: -10%
- growth at 10 µM [4]: 52.1%
- growth at 100 µM [5]: 23%
- inhibition of growth at 10 µM [6]: 38.4%
- growth at 10 µM [7]: 84.6%
- growth at 100 µM [8]: -25%
- growth at 1 µM [9]: 87%
- inhibition of growth at 10 µM [10]: < 10%
- growth at 0.01 µM [11]: 93%
- growth at 1 µM [12]: 71%
- growth at 10 µM [13]: 55.1%
- inhibition of growth at 10 µM [14]: 63.5%
- growth at 100 µM [15]: -76%
- growth at 0.1 µM [16]: 93%
- growth at 0.01 µM [17]: 116%
- growth at 1 µM [18]: 56%
- GI50 ([19]; read-out: GI50): 4.08 µM
- CC50 [19, 47]: 59.1 µM
- TGI ([19]; read-out: TGI): 19 µM
- GI50 ([19]; read-out: pGI50 (converted)): 4.07 µM
- CC50 [19, 48]: 58.9 µM
- TGI ([19]; read-out: pTGI (converted)): 19.1 µM
- inhibition of growth at 10 µM [20]: 71.6%
- inhibition of growth at 10 µM [21]: 63.1%
- inhibition of growth at 10 µM [22]: 39.8%
- GI50 ([23]; read-out: GI50): 1.7 µM
- CC50 [23, 47]: > 100 µM
- TGI ([23]; read-out: TGI): 7.02 µM
- GI50 ([23]; read-out: pGI50 (converted)): 1.7 µM
- CC50 [23, 48]: > 100 µM
- TGI ([23]; read-out: pTGI (converted)): 7.08 µM
- inhibition of growth at 10 µM [24]: 48.8%
- inhibition of growth at 10 µM [25]: 28.5%
- inhibition of growth at 10 µM [26]: 37.3%
- growth at 10 µM [27]: 44.1%
- growth at 100 µM [28]: 7%
- growth at 10 µM [29]: 18.6%
- growth at 10 µM [30]: 78.1%
- GI50 ([31]; read-out: GI50): 4.98 µM
- CC50 [31, 47]: > 100 µM
- TGI ([31]; read-out: TGI): 50.6 µM
- GI50 ([31]; read-out: pGI50 (converted)): 5.01 µM
- CC50 [31, 48]: > 100 µM
- TGI ([31]; read-out: pTGI (converted)): 50.1 µM
- inhibition of growth at 10 µM [32]: 42.7%
- growth at 0.01 µM [33]: 87%
- inhibition of growth at 10 µM [34]: 47.9%
- growth at 10 µM [35]: 36.5%
- growth at 0.1 µM [36]: 108%
- growth at 10 µM [37]: 57.8%
- growth at 0.1 µM [38]: 96%
- growth at 0.1 µM [39]: 86%
- growth at 10 µM [40]: 57.3%
- growth at 10 µM [41]: 62.3%
- growth at 0.1 µM [42]: 93%
- inhibition of growth at 10 µM [43]: < 10%
- growth at 100 µM [44]: -68%
- growth at 0.1 µM [45]: 85%
- growth at 0.01 µM [46]: 101%
